Here are results for four compounds from patent publication US20260335495A1, “SYNERGISTIC ACTIVITY OF NOVEL COMPOUNDS AGAINST PLANKTONIC AND BIOFILM CELLS OF CLINICALLY RELEVANT PATHOGENS” (priority 2021, published 2026).

Data set [1] has as its system MRSA ON184. Description: MIC and checkerboard (FICI), planktonic cells. It is filed as cell-based, methicillin-resistant S. aureus. Here is the method:
(§1) The MIC was determined by the micro broth dilution method in 96-well plates. […] A 10 μL containing 1×10^5 bacterial cells or 2×10^3 fungal cells were added to each well. The inoculated plates were covered with a lid, sealed with Parafilm, and incubated for 24 h at 37 °C with slight rocking on a tilting platform shaker. After incubation, the optical density at 600 nm (OD 600) of the cultures in each well was measured using an xMark™ Microplate Absorbance Spectrophotometer (Bio-Rad). The MIC was defined as the lowest concentration of antimicrobial compound at which the culture OD600 values was similar to uninoculated control wells. MBCs and MFCs were determined by transferring 100 μL from each well with no apparent growth onto appropriate agar plates, followed by incubation for 24 h at 37 °C.
(§2) The concentrations of antimicrobials used were based on previously determined MIC values. […] Microtiter plates were incubated at 37 °C for 24 h, and the results were analyzed. Each test was performed in duplicate and included a growth control without the addition of any antimicrobials.

Data set [2] deals with 12 test organisms. Description: MBC/MFC and FMCI, planktonic cells, summary over strains. It is filed as cell-based, bacterial and fungal organisms. The method, then:
as §1, §2

The test system of data set [3] is E. coli SK2. Briefly: MIC and checkerboard (FICI), planktonic cells. It is filed as cell-based. Here is the method:
as §1, §2

Data set [4] has as its system S. epidermidis SK9. Description: MIC and checkerboard (FICI), planktonic cells. It is filed as cell-based. Here is the method: as §1, §2
For data set [5], the system named is Serratia marcescens SK2. Description: MIC and checkerboard (FICI), planktonic cells. It is filed as cell-based. Here is the method: as §1, §2
Data set [6] has as its system Proteus mirabilis ON153. Description: MIC and checkerboard (FICI), planktonic cells. It is filed as cell-based. Here is the method:
as §1, §2

The test system of data set [7] is C. albicans ON47. Description: MIC and checkerboard (FICI), planktonic cells. It counts as cell-based. Here is the method:
as §1, §2

Data set [8] concerns Candida albicans SK4b. Description: MIC and checkerboard (FICI), planktonic cells. It is filed as cell-based. The method, then: as §1, §2
Data set [9] concerns Staphylococcus epidermidis ON170. Description: MIC and checkerboard (FICI), planktonic cells. It counts as cell-based. Here is the method:
as §1, §2

Data set [10] concerns Pseudomonas aeruginosa SK1. Briefly: MIC and checkerboard (FICI), planktonic cells. It counts as cell-based. Here is the method:
as §1, §2

Data set [11] deals with Escherichia coli ON29. Briefly: MIC and checkerboard (FICI), planktonic cells. It is filed as cell-based. Here is the method:
as §1, §2

For data set [12], the system named is Stenotrophomonas maltophilia ON17. Description: MIC and checkerboard (FICI), planktonic cells. It counts as cell-based. Here is the method: as §1, §2
Data set [13] concerns Staphylococcus aureus ON89. Briefly: MIC and checkerboard (FICI), planktonic cells. It counts as cell-based. The method, then:
as §1, §2

Data set [14] relates to preformed biofilms of test pathogens. Briefly: MBEC and FBEC index, 48 h old biofilms, summary over strains. It is filed as cell-based, bacterial and fungal strains. The settings on record: alone: 4% tetrasodium EDTA, 50% ethanol, 100 μg/mL chlorhexidine HCl, 24 hours. The method, then:
The evaluation of the biofilm cultivation cell composition was evaluated using an MBEC Assay® biofilm inoculator, consisting of a polystyrene lid with 96 downward-protruding pegs and a corresponding base used to grow biofilms. A standardized inoculum was diluted in an appropriate biofilm growth medium to achieve a viable cell count of 1.5×10^6 CFU/mL of bacterial cells or 5×10^5 CFU/mL of fungal cells. Then, 150 μL of this inoculum was transferred into each appropriate well, and the peg lids were inserted into the microtiter plates. The plates were sealed with Parafilm and were incubated at optimum temperature for 48 h with slight rocking for bacteria and shaking at 200 rpm for fungal strains. After incubation, the peg lid was removed from the base and rinsed twice with sterile phosphate-buffered saline (PBS) for 2 min to remove loosely attached non-sessile cells. Before the antimicrobial challenge, the pegs in column 1 (n=8) were considered as the biofilm growth control; these pegs were removed from the lids, placed into 200 μL of recovery medium, and analyzed for starting biofilm cell numbers as described below. […] After the antimicrobial challenge, the pegs were rinsed twice with sterile PBS for 2 min and placed into a new 96-well plate containing 200 μL of recovery medium. The recovery plates were sealed with Parafilm, and biofilm cells were dislodged from the pegs by sonication for 30 min with a Branson 3510 bath sonicator. The biofilm cells in the recovery medium were serially diluted, and a drop dilution assay was performed to enumerate the viable cells.
In step (4), microtiter plates are incubated at 37 °C for 24 h. then (6), after incubation, the bacterial and fungal cells were dislodged from the pegs into the recovery medium described above.
Three 10-μL aliquots, for a total of 30 μL from each well of recovery medium, were spotted on MH agar plates and incubated for 24 hours at 37 °C. […] The FBEC determination is a modification of the FICI. […]

For data set [15], the system named is bacterial and fungal biofilms. Briefly: Rapid eradication of 48-h-old biofilms within 2 h exposure. It is filed as cell-based, bacterial and fungal strains. To be noted: at the MBEC alone, 48-h-old biofilm. Here is the method: This example comprises performing biofilm growth as described above. After biofilm formation, control pegs (n=6) were removed and analyzed to determine the starting biofilm cell numbers via the drop dilution method. The 48-h old biofilms on the pegs were exposed to different concentrations of test antimicrobials, dissolved in an appropriate growth medium, for 2 hours to evaluate their efficacy alone and in combination. […] Following treatment, pegs were washed twice with sterile PBS, and the biofilm cells were dislodged into recovery medium and enumerated as described above.

For data set [16], the system named is human erythrocytes and neutrophils. The settings on record: concentrations above 2%, in vitro; cited from earlier work.
The conditions of data set [17]: overuse; cited from earlier work.
The conditions of data set [18]: cited from earlier work.
In data set [19] the test system is broad range of microbial species. The settings on record: even at high concentrations; cited from earlier work.
In data set [20] the test system is S. aureus. The settings on record: cited from earlier work.
Data set [21] concerns biofilms. The settings on record: cited from earlier work.

Structures can show the parent of a compound that is named as a salt.

Regarding `[H]/N=C(\N/C(=N/[H])NCCCCCCNC(=N)NC(=N)Nc1ccc(Cl)cc1)Nc1ccc(Cl)cc1` [CH, chlorhexidine HCl], the minimum inhibitory concentration (MIC) (usually the least concentration at which growth counts as inhibited) amounted to 0.2 µg/mL in data set [1] (Staphylococcus aureus, MRSA, alone, 24 h, 37 °C, read-out: MIC); 0.4 µg/mL in data set [3] (Escherichia coli, SK2, 24 h); 0.1 µg/mL in [4] (Staphylococcus epidermidis, SK9, alone, 24 h, 37 °C, read-out: MIC); 12.5 µg/mL in data set [5] (Serratia marcescens, SK2, 24 h); 50 µg/mL in data set [6] (Proteus mirabilis, ON153, alone, 24 h, 37 °C, read-out: MIC); 1.6 µg/mL in [7] (Candida albicans, ON47, 24 h). Besides, the MIC in data set [8] (Candida albicans, SK4B, 24 h) was 1.6 µg/mL; in data set [9] (Staphylococcus epidermidis, ON170, alone, 24 h, 37 °C, read-out: MIC), 0.1 µg/mL; in data set [10] (Pseudomonas aeruginosa, SK1, 24 h), 1.6 µg/mL; in data set [11] (Escherichia coli, ON29, alone, 24 h, 37 °C, read-out: MIC) it was 0.4 µg/mL; in data set [12] (Stenotrophomonas maltophilia, ON17, 24 h) it was 0.8 µg/mL; in data set [13] (Staphylococcus aureus, ON89, alone, 24 h, 37 °C, read-out: MIC), 0.1 µg/mL. Also, the MIC in combination in data set [1] (TE + CH in combination) stood at 0.2 µg/mL; in data set [3] (TE + CH in combination), 0.1 µg/mL; in data set [4] (TE + CH in combination) it was 0.025 µg/mL; in [5] (TE + CH in combination), 1.5 µg/mL; in data set [6] (TE + CH in combination), 0.8 µg/mL; in data set [7] (TE + CH in combination) it was 0.8 µg/mL. For the same compound, the MIC in combination is 0.8 µg/mL in [8] (TE + CH in combination); 0.05 µg/mL in data set [9] (TE + CH in combination); 0.8 µg/mL in data set [10] (TE + CH in combination); 0.2 µg/mL in data set [11] (TE + CH in combination); 0.2 µg/mL in data set [12] (TE + CH in combination); 0.1 µg/mL in [13] (TE + CH in combination). Also, the microbicidal activity result in data set [2] is “broad-spectrum microbicidal activity”. In addition, the “eradication of all established biofilms” value in data set [14] is “able to eradicate all established biofilms”. The biofilm eradication result in data set [15] was “failed to eradicate the preformed biofilms”.

Regarding `[H]/N=C(\N/C(=N/[H])NCCCCCCNC(=N)NC(=N)Nc1ccc(Cl)cc1)Nc1ccc(Cl)cc1` [Chlorhexidine, 1,6-bis(4-chloro-phenylbiguanido)hexane], the “effect on human erythrocytes and neutrophils” value in data set [16] was “fewer human erythrocytes and neutrophils in vitro”. For the same compound, the “reduced susceptibility and cross-resistance” value in data set [17] was “reduced susceptibility from its overuse and a cross-resistance to colistin”. Further, the mammalian toxicity entry in [18] (in vivo) is reported as “low mammalian toxicity”. Also, the chemical burns entry in data set [18] (infants) is listed as “cause chemical burns in infants”. Further, in [18] (perioperative and clinical care settings), the allergenicity entry is reported as “significant allergen”.

Turning to `O=C(O)CN(CCN(CC(=O)O)CC(=O)O)CC(=O)O` [disodium EDTA], in [19], the antimicrobial activity alone result is reported as “not a potent antimicrobial agent (i.e., does not kill cells)”.

As to Heparin, the “colonization of catheter surfaces” value in data set [20] was “promote the colonization of S. aureus on catheter surfaces”. Moreover, the “inhibition or eradication of biofilms” value in [21] was “neither of these agents has the potential to inhibit or eradicate biofilms”.
